Earlier results on one compound are cited in patent US20090298951A1, “Nontoxic Biocidal Composition And Method Thereof” (priority 2008, published 2009).

For the series the following is noted: 20° C.

`C/C=C/C=C/C(=O)[O-].[K+]` [potassium sorbate, potassium (E,E)-hexa-2,4-dienoate]: the soluble in water is recorded as 58.2%.
